Data published in patent US9610371B2, “Anticancer therapy” (STC.UNM, priority 2005, dated 2017).
Entries after “also recorded” stand apart in the source; their conditions may differ. Where two headings read alike, the source gives them in different places. Positions of bridges follow the written chain, without caps; N, C: chain ends. Non-standard residues stand in square brackets, D forms with d. Residues, ends and D or L forms follow the SMILES beside them.

How the values were obtained:
[1] = tested on: human SSTR subtypes (SSTR1-SSTR5); details: cited from earlier work
[2] = tested on: somatostatin receptor binding sites of Capan-2 cells; test: Radioligand assay of ^177Lu-DOTATOC binding after gemcitabine pre-treatment; type: cell-based, human; details: 4 days 1 μg/mL pre-treatment and 4 days of replenishment
Method: A radioligand assay was performed to evaluate receptor binding by the recognition ligand after pre-treatment of 4 days with 1 μg/mL gemcitabine and 4 days of replenishment.

Capan-2 = test: Apoptosis in Capan-2 cells, with or without gemcitabine pre-treatment; type: cell-based, human; details: Capan-2, 1 μg/mL, FIG. 7
Excerpt: Alpha emitters such as ^213Bi are known to cause G2M arrest and induce apoptosis in cancer cell lines. Experiments were thus performed to evaluate radiation-induced apoptosis and the radiobiological and radiotherapeutical relevance of this mode of cell death in selection of a radionuclide for therapy.
Activation or down regulation of pro- and anti-apoptotic genes influence cancer cell viability, cancer cell sensitivity to chemotherapy and radiotherapy, and tumor development and progression. A variety of chemotherapeutic agents induce cell death via apoptosis. Gemcitabine is known to induce apoptosis primarily due to Bax overexpression, whereas Bcl-xl is known to reduce gemcitabine-induced apoptosis. In contrast, Capan-2 is […] to Fas-mediated apoptosis. […] The data is expressed as ±S.E.M. of mean apoptosis. […] But when combined with radiolabeled DOTATOC, a synergetic effect on induction of apoptosis is observed.

human sst1 = human sst1 (Homo sapiens, UniProt P30872); details: cited from earlier work
human sst4 = human sst4 (Homo sapiens, UniProt P31391); details: cited from earlier work
human sst3 = human sst3 (Homo sapiens, UniProt P32745); details: cited from earlier work
human sst2 = human sst2 (Homo sapiens, UniProt P30874); details: cited from earlier work
Capan-2 cells [3] = test: CellTiter-Glo Luminescent Cell Viability Assay, gemcitabine pre-treated and non-treated Capan-2; type: cell-based, human
Method: Effects of 37 kBq and 370 kBq of ^177Lu labeled DOTATOC and DOTA on gemcitabine pre-treated Capan-2 cells and non-treated cells were evaluated using CellTiter-Glo® Luminescent Cell Viability Assay (Promega, Madison, Wis.) and Cell Death Detection ELISA^PLUS10× (Roche Applied Sciences, IN) for apoptosis. Cell viability was evaluated at 24 and 48 hours of incubations.

Capan-2 cells [4] = test: Cell Death Detection ELISA PLUS apoptosis, gemcitabine pre-treated and non-treated Capan-2; type: cell-based, human; details: 72 hours
Method: […] Capan-2 cells and non-treated cells were evaluated using CellTiter-Glo® Luminescent Cell Viability Assay (Promega, Madison, Wis.) and Cell Death Detection ELISA^PLUS10× (Roche Applied Sciences, IN) for apoptosis. Cell viability was evaluated at 24 and 48 hours of incubations.

[5] = 25 day toxicology in tumor bearing male Lewis rats; type: in vivo, Lewis rat; details: 25 days; 12.6 MBq ^213Bi-DOTATOC group and DOTATOC control group
Method: Toxicology was assessed at 25 days in 4 groups of tumor bearing male Lewis rats (average volume […]). Rats in the first group, Cohort 1, were injected on day 1 only. Rats in second cohort were injected on days 1 and 2, while rats in the third cohort were injected on days 1, 2, and 3. Rats were injected with 2.56 μg, 0.5 μg, 0.5 μg DOTATOC, on day 1, day 2 and day 3, respectively, with a nominal activity of 3.7 MBq. Each dose was divided into 2 injections at 1 hour intervals. The rats received the following cumulative average activities per group: Cohort 1 (N=3) received 4.3±0.7 MBq, Cohort 2 (N=3) received 9.0±0.4 MBq, and Cohort 3 (N=4) received 12.6±0.3 MBq of ^213Bi-DOTATOC. Cohort 4 (N=4) was added as control group and injected twice daily with unlabelled DOTATOC on three consecutive days.
After 24 days, the animals were put into a metabolic cage to collect urine samples for creatinine clearance analysis. Creatine clearance was determined as previously described (20). After 24 hour urine collection, the animals were euthanized with halothane. For blood collection, a cardiac puncture was performed. Blood analysis consisted of hemoglobin (Hgb), hematocrit (Hct), red blood cells (RBC's), and white blood cells (WBC's) with differential, and platelets (Pt's). Additionally T4 and FSH values were assessed using the serum.
Additional groups were then designed to study the effects of the treatment on a somatostatin receptor positive tumor. The first group was designed to study the effects of treatment on large volume tumors (average volume 1720±608 mm^3). This group, Cohort 5 (N=5), received three fractionated doses of ^213Bi-DOTATOC (specific activity 7.4 MBq ^213Bi/1 μG DOTATOC) with a total average cumulative dose of 13.0±0.5 MBq of ^213Bi-DOTATOC. The last cohort, the sixth cohort (N=4), was injected with two fractionated doses, ^213Bi-DOTATOC (specific activity 7.4 MBq ^213Bi/1 μG DOTATOC) with a total average cumulative dose of 22.2±0.7 MBq of ^213Bi-DOTATOC. As described earlier, each dose was divided into 2 injections separated by a 1 hour interval. Tumor response to the treatment was assessed in all cohorts by daily tumor measurements.
Organs were harvested and immediately placed in 10% formalin for a minimum of 48 hours. Following fixation in formalin, bone samples were placed in decalcifying solution for 36 hours. Trimmed organs were sent to the TriCore Laboratories (Albuquerque, N. Mex.) where they were embedded in paraffin, sectioned, and stained with Hematoxylin and Eosin (H and E). Histopathologic evaluation was performed by a board certified veterinary pathologist (DFK) who examined the following organs of each animal: heart, lung, kidneys, testicles, spleen, pancreas, pituitary bone marrow, urinary bladder, adrenals, and two different sections of the liver.
Sections of both the right and left kidneys were examined to determine nephrotoxicity in all cohorts. Bone marrow was examined to evaluate hypoplasia and other lesions in Cohorts 3 and 4. Interstitial nephritis and bone marrow were scored as follows: 0 no lesions, 1 minimal lesions, 2 mild lesions, 3 moderate lesions, and 4 severe lesions.
For the pathology scoring, to evaluate nephrotoxicity on the 6 treatment groups, a frequency analysis was performed in StatXact-5 using the Jonckheere-Terpstra Test. For all other data, graphs and calculations were performed in SigmaStat®-3 and SigmaPlot®-9 as well as Graph Pad Prism®-4 using the t-test. For all statistical tests results were considered significant when p<0.05. Animal biodistribution and tumor volume data are expressed as the average, plus or minus the SEM.

human sst1, sequence (P30872 whole entry): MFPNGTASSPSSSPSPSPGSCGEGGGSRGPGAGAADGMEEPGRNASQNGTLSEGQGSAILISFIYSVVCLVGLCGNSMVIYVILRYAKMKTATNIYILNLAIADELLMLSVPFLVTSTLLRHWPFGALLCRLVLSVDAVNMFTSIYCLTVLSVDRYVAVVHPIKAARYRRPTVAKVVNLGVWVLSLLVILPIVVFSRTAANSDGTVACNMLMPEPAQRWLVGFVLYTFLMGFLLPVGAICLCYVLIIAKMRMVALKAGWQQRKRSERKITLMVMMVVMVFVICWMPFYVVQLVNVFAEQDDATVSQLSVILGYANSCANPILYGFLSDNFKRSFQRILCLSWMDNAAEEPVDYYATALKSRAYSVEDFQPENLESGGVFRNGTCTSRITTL
human sst4, sequence (P31391 whole entry): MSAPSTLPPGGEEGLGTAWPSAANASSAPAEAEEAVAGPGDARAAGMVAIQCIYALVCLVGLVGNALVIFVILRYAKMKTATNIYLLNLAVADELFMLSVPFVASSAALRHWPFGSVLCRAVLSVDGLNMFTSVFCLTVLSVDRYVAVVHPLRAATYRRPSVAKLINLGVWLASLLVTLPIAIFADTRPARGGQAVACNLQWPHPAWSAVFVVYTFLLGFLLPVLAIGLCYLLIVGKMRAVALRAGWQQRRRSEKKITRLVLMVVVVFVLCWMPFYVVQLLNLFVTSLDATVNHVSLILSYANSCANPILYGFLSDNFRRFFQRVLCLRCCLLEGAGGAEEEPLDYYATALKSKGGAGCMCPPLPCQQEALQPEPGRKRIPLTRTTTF
human sst2, sequence (P30874 whole entry): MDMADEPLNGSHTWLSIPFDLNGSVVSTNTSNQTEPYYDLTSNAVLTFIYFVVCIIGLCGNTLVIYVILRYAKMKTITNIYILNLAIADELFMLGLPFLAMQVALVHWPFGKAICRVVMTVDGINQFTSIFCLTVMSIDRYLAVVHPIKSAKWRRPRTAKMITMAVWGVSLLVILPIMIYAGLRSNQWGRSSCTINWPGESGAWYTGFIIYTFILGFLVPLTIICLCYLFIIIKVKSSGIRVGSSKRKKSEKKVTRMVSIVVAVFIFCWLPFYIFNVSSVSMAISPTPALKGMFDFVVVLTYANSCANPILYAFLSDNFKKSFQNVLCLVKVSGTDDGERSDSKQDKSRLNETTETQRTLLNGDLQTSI
human sst3, sequence (P32745 whole entry): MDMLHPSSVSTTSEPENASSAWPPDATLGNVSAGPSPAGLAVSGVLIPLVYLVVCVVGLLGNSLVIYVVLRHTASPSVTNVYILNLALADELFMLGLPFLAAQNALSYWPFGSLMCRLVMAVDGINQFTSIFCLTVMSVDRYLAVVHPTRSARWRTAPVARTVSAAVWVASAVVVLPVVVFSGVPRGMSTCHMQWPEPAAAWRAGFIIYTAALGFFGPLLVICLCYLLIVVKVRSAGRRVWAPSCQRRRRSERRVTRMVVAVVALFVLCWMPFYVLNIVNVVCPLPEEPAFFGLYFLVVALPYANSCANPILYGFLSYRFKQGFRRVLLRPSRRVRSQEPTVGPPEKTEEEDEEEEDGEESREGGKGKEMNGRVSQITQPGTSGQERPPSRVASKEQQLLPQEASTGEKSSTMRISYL

Compound | affinity for sst1 (human sst1) | affinity for sst4 (human sst4) | affinity for sst3 (human sst3) | affinity for sst2 (human sst2) | also measured
SST-24: somatostatin form bound by all 5 human SSTR subtypes; probably a misprint of somatostatin-14 | – | – | – | – | binding to all 5 human SSTR subtypes [1]: high affinity
Nc1ccn([C@@H]2O[C@H](CO)[C@@H](O)C2(F)F)c(=O)n1 [gemcitabine, 2′,2′-difluoro-2′-deoxycytidine] | – | – | – | – | more binding sites than the non-treated Capan-2 cells [2]: ~70%; induction of apoptosis by itself (Capan-2): does not induce any significant amount of apoptosis
CC(C)[C@@H]1NC(=O)[C@H](CCCCN)NC(=O)[C@@H](Cc2c[nH]c3ccccc23)NC(=O)[C@H](Cc2ccc(O)cc2)NC(=O)[C@@H](NC(=O)[C@H](N)Cc2ccc3ccccc3c2)CSSC[C@@H](C(=O)N[C@H](C(N)=O)[C@@H](C)O)NC1=O [lanreotide, D-βNal-Cys-Tyr-D-Trp-Lys-Val-Cys-Thr-NH2] | very low affinity | very low affinity | moderate affinity; also recorded: lower affinity | high affinity | affinity for sst4 (human sst4; listed as LAN): moderate affinity
SST-28: somatostatin variant that is a 28 amino acid peptide | – | – | – | – | binding to all 5 human SSTR subtypes [1]: high affinity
C[C@@H](O)[C@@H]1NC(=O)[C@H](CCCCN)NC(=O)[C@@H](Cc2c[nH]c3ccccc23)NC(=O)[C@H](Cc2ccc(O)cc2)NC(=O)[C@@H](NC(=O)[C@@H](Cc2ccccc2)NC(=O)CN2CCN(CC(=O)O)CCN(CC(=O)O)CCN(CC(=O)O)CC2)CSSC[C@@H](C(=O)N[C@H](CO)[C@@H](C)O)NC1=O [DOTATOC, [DOTA^0, Tyr^3] octreotide] | – | – | – | – | effects on cell viability (Capan-2 cells [3]; 24 hours, 70 pM and 7 fM, gemcitabine pre-treated and non-treated Capan-2): no significant effects; effects on the induction of apoptosis (Capan-2 cells [4]; without radiolabel): minimal effects; bone marrow analysis (hypoplasia, hyperplasia, lesions) [5]: no lesions
CC(C)[C@@H]1NC(=O)[C@H](CCCCN)NC(=O)[C@@H](Cc2c[nH]c3ccccc23)NC(=O)[C@H](Cc2ccc(O)cc2)NC(=O)[C@@H](NC(=O)[C@H](N)Cc2ccccc2)CSSC[C@@H](C(=O)N[C@@H](Cc2c[nH]c3ccccc23)C(N)=O)NC1=O [vapreotide, D-Phe-Cys-Tyr-D-Trp-Lys-Val-Cys-Trp-NH2] (H-[dF]CY[dW]KVCW-NH2; disulfide 2-7) | very low affinity | moderate affinity | moderate affinity | high affinity | –
C[C@@H](O)[C@@H]1NC(=O)[C@H](CCCCN)NC(=O)[C@@H](Cc2c[nH]c3ccccc23)NC(=O)[C@H](Cc2ccccc2)NC(=O)[C@@H](NC(=O)[C@H](N)Cc2ccccc2)CSSC[C@@H](C(=O)N[C@H](CO)[C@@H](C)O)NC1=O [octreotide, D-Phe-Cys-Phe-D-Trp-Lys-Thr-Cys-Thr-OH] | very low affinity | very low affinity | moderate affinity; also recorded: lower affinity | high affinity | affinity for sst4 (human sst4; listed as OCT): little or no affinity
O=C([O-])CN1CCN(CC(=O)[O-])CCN(CC(=O)[O-])CCN(CC(=O)[O-])CC1.[177Lu+3].[H+] [^177Lu-DOTA] | – | – | – | – | effects of radiosensitivity induced by gemcitabine pre-treatment on cell viability (Capan-2 cells [3]; 24 hours, higher doses (370 kBq)): can be observed; effects of radiosensitivity induced by gemcitabine pre-treatment on cell viability (Capan-2 cells [3]; 48 hours, 370 kBq as well as 37 kBq): observed; effect on apoptosis, gemcitabine pre-treated vs non-treated Capan-2 (Capan-2 cells [4]): Enhancements of radiation induced apoptosis
